We go through one molecule from article PMC5216765, “Tumor suppressor berberine binds VASP to inhibit cell migration in basal-like breast cancer” (Oncotarget, 2016).

The assay concerns the target T1, VASP (vasodilator-stimulated phosphoprotein) (Homo sapiens, UniProt P50552).
T1 construct: recombinant VASP expressed in E. coli Rosetta (IPTG, 18 °C), as previously described
Put plainly: intrinsic tryptophan fluorescence quenching titration (excitation […] nm). Particulars: 25 °C; 0.4 μM VASP; berberine 0 to 3.4 μM. It counts as binding.

The structures appear in SMILES notation.

T1 sequence (P50552 2-380): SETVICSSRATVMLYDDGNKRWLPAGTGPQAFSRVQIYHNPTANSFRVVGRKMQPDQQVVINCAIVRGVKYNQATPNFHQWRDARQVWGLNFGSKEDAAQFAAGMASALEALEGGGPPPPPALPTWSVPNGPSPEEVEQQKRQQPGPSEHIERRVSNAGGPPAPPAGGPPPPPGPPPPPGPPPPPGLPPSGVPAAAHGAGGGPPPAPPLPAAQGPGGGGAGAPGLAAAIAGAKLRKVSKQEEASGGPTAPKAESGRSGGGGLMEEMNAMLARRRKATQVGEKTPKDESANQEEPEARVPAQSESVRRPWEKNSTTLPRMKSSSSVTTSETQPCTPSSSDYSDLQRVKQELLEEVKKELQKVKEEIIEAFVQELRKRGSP

With `COc1ccc2cc3[n+](cc2c1OC)CCc1cc2c(cc1-3)OCO2` [berberine], binding was put at a Kd of 100 nM.
